# Where “and” joins values, the source holds several entries; their conditions need not be identical. Equal entries are not always repeated.
# Assays:
# Format in all cases: biochemical, bovine
# PK36 = assay: 32P kinase assay of purified PK36 with dephosphorylated NF-M as second substrate
# Method: (§1) An alternative method for assaying the phosphorylating activity of the kinases was by ^32P assays. Radioactive assays in the same buffer system as for immunoassays contained 5 μg of HTP-purified native NF-triplet as substrate (3μg of substrate proteins other than NFs) and 150-250 cpm/pmole gamma-^32P-ATP. Incubation'times were 15 minutes at 37° C. for activities up to about 1 pmole/min/assay, since the assay responses were linear within these time intervals. Assays were stopped by cooling on ice, addition of 20 μl 25 mM EDTA and immediate transfer of the mixture onto glass filters (Whatman GF/A) wetted with 10% TCA/2% sodium pyrophosphate (PPA). The glass filters were washed twice for 1 hour and once for at least 3 hours in 10% TCA/2% PPA and finally in ethanol and were air-dried. Radioactivity was assessed by scintillation counting (Beckman LS 230) with 5 ml “Liquiscint” (National Diagnostics) for 20 minutes. Assays were routinely carried out in triplicate except for some duplicate assays in a few explicitly mentioned cases; a control assay lacking NFs was subtracted from the mean value.
# (§2) The ATP dependence and inhibition of the activities of PK40 and PK36 were determined at 2 mM Mg^2+ with soluble dephosphorylated NF-M as second substrate to avoid uncertainties arising from the aggregation state of NF-triplet in suspension. The optima were at 0.5-1 mM ATP for both kinases. Apparent Km values for ATP of both kinases were estimated from Woolf-Hanes plots (Dixon and Webb, 1979) for a range of ATP concentrations sufficiently below the onset of inhibition. […] The apparent Km of PK36 was approximately 50 μM.
# [1] = tested on: KSP-phosphorylating kinases; assay: Immuno-dotblot assay (SMI-31/SMI-34 epitope reconstitution on dephosphorylated NF-triplet) with crude 35-45% ammonium sulfate fraction; settings: crude enzyme
# Method: The preferred method for the immunoassay for detecting KSP-phosphorylating kinases is as follows. […] After incubation at 37° C. for 18 hours, assays were diluted to 100 μl with 10 mM PBS, pH 7.2, and aliquots of 50 μl were spotted on nitrocellulose (0.22 μm, Schleicher and Schull). […] Blots were incubated with SMI mAbs for at least 2 hours. The blots were then washed five times. […] All incubations and washes were at room temperature. Incubations were sealed in plastic bags with 50 μl of solution/cm membrane. The foregoing procedure involved parameters that were optimized as follows. […] This activity was NF-specific, since the corresponding control immunoassay which lacked dephosphorylated native NF-triplet was almost negative for this fraction. […] The assays were performed with 0.5 mM Mg^2+ (unless indicated otherwise). […] Immuno-dotblot-assays were conducted to determine the optimal Mg^2+ and ATP concentrations using the SMI-31 and SMI-34 antibodies. […] Control assays were without NFs using 0.4 micrograms crude enzyme.
# PK40 = molecular target: T1, PK40 (Bos taurus, UniProt P46196); assay: 32P kinase assay of purified PK40 with dephosphorylated NF-M as second substrate
# T1 construct: from tissue; host or cells: bovine brain
# T1 sequence (P46196 2-360 limits assumed): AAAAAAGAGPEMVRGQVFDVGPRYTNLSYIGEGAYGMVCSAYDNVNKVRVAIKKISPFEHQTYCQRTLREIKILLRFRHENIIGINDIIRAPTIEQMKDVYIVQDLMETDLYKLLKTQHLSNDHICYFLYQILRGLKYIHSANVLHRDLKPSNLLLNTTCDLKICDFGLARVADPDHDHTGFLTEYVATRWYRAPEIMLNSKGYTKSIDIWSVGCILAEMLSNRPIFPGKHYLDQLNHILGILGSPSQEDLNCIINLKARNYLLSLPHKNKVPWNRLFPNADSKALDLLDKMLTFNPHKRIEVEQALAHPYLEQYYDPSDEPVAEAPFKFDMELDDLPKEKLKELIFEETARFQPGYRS
# Method: as §1, §2
# [2] = 5 mM Mg2+ over 1 mM ATP or 5 mM over 5 mM ATP
# [3] = 5 mM Mg2+, 1 mM ATP, % of control
# [4] = 5 mM Mg2+, 5 mM ATP, % of control
# [5] = 2 mM Mg2+, 5 mM ATP, % of control (2 mM Mg2+, 1 mM ATP)
# [6] = ATP in relatively small excess over Mg2+
smiles,measurement,setting,value
"[Cl-].[Na+] [NaCl, sodium chloride]",relative activity [%] of PK36,"PK36; NaCl 150 mM, % of control",40 ± 0.8%
same,concentration that diminished the assay response,[1]; attributed to ionic strength,greater than 20 mM
same,relative activity [%] of PK40,"PK40; NaCl 150 mM, % of control",27 ± 1.8%
"[Mg+2] [Mg^2, magnesium]",inhibition of PK36 with excess Mg2+,PK36; [2],significantly reduced
same,relative activity [%] of PK36,PK36; [3],40 ± 0.2%
same,relative activity [%] of PK36,PK36; [4],38 ± 2.2%
same,inhibition of PK40 with excess Mg2+,PK40; [2],little or no inhibition
same,relative activity [%] of PK40,PK40; [3],107 ± 3.5%
same,relative activity [%] of PK40,PK40; [4],78 ± 7.1%
Nc1ncnc2c1ncn2[C@@H]1O[C@H](COP(=O)(O)OP(=O)(O)OP(=O)(O)O)[C@@H](O)[C@H]1O [ATP],ATP optimum of PK36 activity,PK36; 2 mM Mg2+,0.5 to 1 mM
same,relative activity [%] of PK36,PK36; [5],14% and 14 ± 0.5%
same,Km,"PK36; 2 mM Mg2+, Woolf-Hanes plots, read-out: apparent Km for ATP of PK36",~50 µM
same,inhibition of PK36 by excess ATP,PK36; [6],strongly inhibited
same,effect on kinase activity,[1]; ATP 5 mM,inhibited the kinase activity
same,ATP optimum of PK40 activity,PK40; 2 mM Mg2+,0.5 to 1 mM
same,relative activity [%] of PK40,PK40; [5],7% and 7.2 ± 6.9%
same,Km,"PK40; 2 mM Mg2+, Woolf-Hanes plots, mean ±S.D. of three determinations, read-out: apparent Km for ATP of PK40",93 ± 12 µM
same,inhibition of PK40 by excess ATP,PK40; [6],strongly inhibited
[Mn+2] [Mn^2+],effectiveness relative to Mg2+,[1],about twice as effective as Mg^2+
Nc1nc2c(ncn2[C@@H]2O[C@H](COP(=O)(O)OP(=O)(O)OP(=O)(O)O)[C@@H](O)[C@H]2O)c(=O)[nH]1 [GTP],ability to substitute for ATP,[1],could not substitute for ATP

# From patent publication US20020025942A1, “NOVEL TAU/NEUROFILAMENT PROTEIN KINASES” (priority 1991, published 2002)
